Data taken from patent US7973219B2, “Method for producing transgenic plants resistant to weed control compounds which disrupt the porphyrin pathways of plants” (Sumitomo Chemical Company, Limited, priority 1998, dated 2011).
Like-named read-outs stand apart in the source and are kept apart here.

How the values were obtained:
[1] = system: tobacco bearing introduced both Arabidopsis thaliana PPO(A220V) gene and gene encoding the variant tobacco chelatase subunit; test: Leaf piece chlorophyll test, tobacco with PPO(A220V) gene and variant tobacco chelatase subunit gene; format: in vivo; conditions: 2.0 ppm, 7 days in a light place, Example 37
Description: Tobacco leaf pieces cultured sterilely were infected with the Agrobacterium strain and, according to the same manner as in Example 5, tobacco bearing the introduced both Arabidopsis thaliana PPO(A220V) gene and gene encoding the variant tobacco chelatase subunit was obtained.
Leaves of the tobacco bearing the introduced both Arabidopsis thaliana PPO(A220V) gene and gene encoding the variant tobacco chelatase subunit produced in Example 36, those bearing the introduced Arabidopsis thaliana PPO(A220V) gene produced in Example 35, and the control recombinant tobacco leaves produced in Example 5were collected, and each leaf was divided into the right and left equivalent pieces along the main vein. One of the pieces was treated with an aqueous solution containing 2.0 ppm PPO inhibitory-type herbicidal compound of Structure 8, while the other piece was not treated with the compound. These leaf pieces were placed on MS medium containing 0.8% agar and allowed to stand at room temperature for 7 days in a light place. Then, each leaf piece was ground in 5 ml of 80% aqueous acetone solution in a mortar with a pestle to extract chlorophyll. The extract was diluted 10 times with 80% aqueous acetone solution and the absorbance was measured at 750 nm, 663 nm and 645 nm to calculate the total chlorophyll content according to the method described by Macknney G., J. Biol. Chem. (1941) 140, p 315. […]

[2] = system: E. coli BT3/pACYCSP+pYAGY strain; test: Growth of E. coli BT3/pACYCSP+pYAGY with herbicidal compound; format: cell-based, Escherichia coli; conditions: 1 ppm, 18 hours culture, Table 15
[3] = system: control recombinant tobacco; test: Leaf piece chlorophyll test, control recombinant tobacco; format: in vivo; conditions: control recombinant tobacco; for activity at 0.3 ppm: Nicotiana tabacum, read-out: Resistant level to test compound
Description: Then, according to the method described in Manual for Gene Manipulation of Plant (by Hirofumi UCHIMIYA, Kodan-sha Scientific, 1992), the gene was introduced into tobacco. Agrobacterium strain bearing plasmid pBIBCH was cultured at 28° C. overnight in LB medium and then leaf pieces of tobacco cultured sterilely were dipped in the liquid culture medium. The leaf pieces were cultured at room temperature for 2 days in Murashige-Skoog medium (MS-medium, described in Murasige T. and Skoog F., Physiol. Plant. (1962) 15, p 473) containing 0.8% agar, 0.1 mg/liter naphthalene acetic acid and 1.0 mg/liter benzyl aminopurine. Then, the leaf pieces were washed with sterilized water and cultured for 7 days on MS medium containing 0.8% agar, 0.1 mg/liter naphthalene acetic acid, 1.0 mg/liter benzyl aminopurine and 500 μg/ml cefotaxime. The leaf pieces were transplanted onto MS medium containing 0.8% agar, 0.1 mg/liter naphthalene acetic acid, 1.0 mg/liter benzyl aminopurine, 500 μg/ml cefotaxime and 100 μg/ml kanamycin (hereinafter referred to as selective MS medium) and cultured on the medium continuously for 4months with transplanting the tobacco leaf pieces onto fresh selective MS medium every 1 month. During culture, stem-leaf differentiated shoots were appeared from the tobacco leaf pieces, these shoots were transplanted to MS medium containing 0.8% agar, 300 μg/ml cefotaxime and 50 μg/ml kanamycin to induce roots to obtain regenerated plants. The resultant regenerated plant was transplanted and cultured on MS medium 0.8% agar and 50 μg/ml kanamycin to obtain tobacco plant into which bchH gene was introduced. Similarly, tobacco leaf pieces were infected with Agrobacterium strain bearing pNO to obtain regenerated plant from the tobacco leaf pieces and tobacco plant (hereinafter referred to as control recombinant tobacco).
(§1) The tobacco leaves into which bchH gene was introduced and control recombinant tobacco leaves obtained in Example 5 were collected and each leaf was divided into the right and left equivalent pieces along the main vein, respectively. To one piece was applied an aqueous solution containing 0.3 ppm PPO inhibitory-type herbicidal compound of Structure 8, while, to the other piece was not applied the compound. These leaf pieces were placed on MS medium containing 0.8% agar and allowed to stand at room temperature for 7 days in light place. Then, each leaf piece was ground with pestle and mortar in 5 ml of 80% aqueous acetone solution to extract chlorophyll. The extract liquid was diluted with 80% aqueous acetone solution and the absorbance was measured at 750 nm, 663 nm and 645 nm to calculate total chlorophyll content according to the method described by Macknney G., J. Biol. Chem. (1941) 140, p 315. The results obtained from 4 clones of tobacco into which bchH gene was introduced (BCH1 to 4) and control recombinant tobacco is shown in Table 4. In the table, the resistant level to the herbicidal compound was represented by percentages of the total chlorophyll content of leaf pieces treated with herbicidal compound to that of untreated leaf pieces.
The tobacco clone into which bchH gene was introduced and control recombinant tobacco were also treated in the same manner with the solution containing PPO inhibitory-type herbicidal compound represented by the above Structure 3, 7, 10, 11, 13, 17, 23, 24, 25, 27, 28, 30 or 35, and the resistant level to each herbicidal compound was measured. In the table, the resistant levels to the herbicidal compound were represented by percentages of the total chlorophyll content of leaf pieces treated with the herbicidal compound to that of untreated leaf pieces.
The level of resistance to PPO inhibitory type herbicidal compound represented by Structure 8 was confirmed quantitatively by testing tobacco into which the gene encoding the variant soybean PPO prepared in Example 13 was introduced according to the same manner as in Example 6. […]

[4] = system: tobacco introduced with the gene encoding the variant barley ferrochelatase; test: Leaf piece chlorophyll test, tobacco with gene encoding variant barley ferrochelatase; format: in vivo; conditions: Table 12; for Resistant level to test compound: same manner as Example 6 (0.3 ppm), treated vs untreated leaf pieces; for Total chlorophyll content treated-leaf: same manner as Example 6 (0.3 ppm, 7 days in light)
Description: as §1
Leaf pieces of tobacco cultured sterilely were infected with said Agrobacterium strain and, according to the same manner as in Example 5, tobacco into which the gene encoding the variant barley ferrochelatase was introduced was obtained.
The level of resistance to the PPO inhibitory-type herbicidal compound represented by Structure 8 was confirmed quantitatively by testing tobacco into which the gene encoding the variant barley ferrochelatase prepared in Example 21 was introduced according to the same manner as in Example 6. The results obtained from 4 clones (HVF 1-4) of tobacco introduced with the gene encoding the variant barley ferrochelatase and control recombinant tobacco are shown in table 12. In the table, the resistant levels to the herbicidal compound are represented by percentages of the total chlorophyll content of leaf pieces treated with herbicidal compound to that of untreated leaf pieces.

For `C#CCOc1cc(N2C(=O)C3=C(CCCC3)C2=O)c(F)cc1Cl` [Structure 8], the resistant level [1] was 61.6%, the Relative absorbance ([2]; in the dark) was 0.99 and the Relative absorbance ([2]; in the light) was 0.48. The activity at 0.3 ppm ([3]; 168 h, 0.3 ppm, 7 days in light, chlorophyll of treated vs untreated leaf pieces, Table 4) was 7.63%, the activity at 0.3 ppm ([3]; same manner as Example 6 (0.3 ppm), treated vs untreated leaf pieces, Table 8) was 10% and the activity at 0.3 ppm ([3]; same manner as Example 6 (0.3 ppm), treated vs untreated leaf pieces, Table 10) was 18.4%. The activity at 0.3 ppm ([3]; same manner as Example 6 (0.3 ppm), treated vs untreated leaf pieces, Table 12) was 8.29%, the “Total chlorophyll content treated-leaf” value ([3]; 0.3 ppm, leaf pieces 7 days in light place, Table 4) was 0.19 mg/g-fresh weight and the resistant level ([3]; 2.0 ppm, 7 days in a light place, chlorophyll of treated vs untreated leaf pieces, Example 37) was 2.88%. The “Total chlorophyll content treated-leaf” value ([3]; same manner as Example 6 (0.3 ppm, 7 days in light), Table 8) was 0.35 mg/g-fresh weight, the “Total chlorophyll content treated-leaf” value ([3]; same manner as Example 6 (0.3 ppm, 7 days in light), Table 10) was 0.42 mg/g-fresh weight and the “Total chlorophyll content treated-leaf” value ([3]; same manner as Example 6 (0.3 ppm, 7 days in light), Table 12) was 0.160 mg/g-fresh weight. The “Resistant level to test compound” value ([4]; clone HVF-1) was 106%, the “Total chlorophyll content treated-leaf” value ([4]; clone HVF-1) was 0.930 mg/g-fresh weight and the “Resistant level to test compound” value ([4]; clone HVF-2) was 102%. For the same compound, the “Total chlorophyll content treated-leaf” value ([4]; clone HVF-2) was 1.16 mg/g-fresh weight, the “Resistant level to test compound” value ([4]; clone HVF-3) was 98.1% and the “Total chlorophyll content treated-leaf” value ([4]; clone HVF-3) was 1.04 mg/g-fresh weight. For the same compound, the “Resistant level to test compound” value ([4]; clone HVF-4) was 95.9% and the “Total chlorophyll content treated-leaf” value ([4]; clone HVF-4) was 1.42 mg/g-fresh weight.
